The values that follow come from US7045283B2, “Methods of high-throughput screening for internalizing antibodies” (The Regents of the University of California, priority 2000, dated 2006).

One data set in a line: in vitro. Particulars: BEND-3 endothelial cells expressing VEGF receptor.
Data set [1] is described as follows: Methotrexate encapsulation by reverse phase evaporation (direct sequestration) and leakage. In kind it is physicochemical.

In brackets after ≈: the same amount, converted by molar mass. Bounds are passed on as bounds.

Protocol for in vitro: Bovine endothelial cells (BEND-3) expressing vascular endothelial growth factor (VEGF) receptor were incubated (37° C., 6 hours) in the growth medium containing 0.03–90 microgram/mL of the free (i.e. non-encapsulated) vinorelbine, or vinorelbine encapsulated in the Ni-NTA-PEG-DSPE liposomes with or without 0.02 mg/niL of the intemalizing anti-VEGER scFv antibody 4G7 having a hexahistidine tag and a terminal cysteine group. The cells were post-incubated in the growth medium without the drug for another 72 hours, and the viability of the cells was determined by a conventional tetrasolium (MTT) assay.

Take `CCC1=C[C@@H]2CN(C1)Cc1c([nH]c3ccccc13)[C@@](C(=O)OC)(c1cc3c(cc1OC)N(C)[C@H]1[C@@](O)(C(=O)OC)[C@H](OC(C)=O)[C@]4(CC)C=CCN5CC[C@]31[C@@H]54)C2` [free vinorelbine, vinorelbine]: the IC50 (commonly the midpoint of a concentration-inhibition curve) at 6 h in “in vitro” turned out to be 0.67 µg/mL (≈ 0.86 µM).
Regarding `CN(Cc1cnc2nc(N)nc(N)c2n1)c1ccc(C(=O)N[C@@H](CCC(=O)O)C(=O)O)cc1` [free methotrexate, methotrexate], the MTX loading efficiency in data set [1] is listed as 28.7–29.5%. For the same compound, the IC50 at 6 h in “in vitro” is over 90 µg/mL.
